This note sets out measurements from patent US11285128B2, “Homogenous antibody drug conjugates via enzymatic methods” (CSPC Megalith Biopharmaceutical Co., Ltd., priority 2014, dated 2022).

One data set deals with SK-BR-3 cells. The experiment in a line: In vitro cell viability assay (CellTiter Blue) in SK-BR-3 cells. Type of data set: cell-based. Conditions: Trastuzumab-MMAE conjugates. How it is done:
SK-BR-3 cells were seeded in 96 well black clear-bottom plates at 10K cells/well and cultured for 24 hours. Cells were treated for 96 hours with 2 fold serially diluted antibody-drug conjugates in triplicates. Cells viability was determined by […]™ Blue Cell Viability Assay (Promega, Madison, Wis.). Relative cell viability was determined as a percentage of untreated control. IC50 was calculated using a four parameter logistic model from XLfit.

A further data set has as its system BT474 cells. Description: BT474 cell-based assay. Conditions: Trastuzumab-MMAE conjugates, Table 4.
The nature of data set [1]: In vivo stability in blood of NCI N87 xenograft mice (sandwich ELISA, ratio ADC/mAb). Conditions: blood samples up to 21 days.
Description: After ADC administration, blood samples of 20 μl were taken every 1-2 days up to 21 days by poking mouse tails and mixed with 120 μl of storage buffer (PBS with 10 mM EDTA and 0.1 M NH4Cl). Then total trastuzumab and ADC were analyzed by sandwich ELISA. Black NUNC® Maxisorp 96 plates were coated with Her2 protein at 100 ng/well. Samples were further diluted with PBS as needed to suit the linear detection range of 10 pg to 2 ng (for either Trastuzumab or ADC). After applying samples (fresh ADC dilutions were used as both total mAb and ADC standards) and washing, rabbit polyclonal anti-trastuzumab (for total mAb) or anti-MMAE (for total ADC) were applied as secondary antibodies while Goat anti-Rabbit IgG-HRP (Life-technologies) was used as the detection antibody. AMPLEX® Red (Cayman Chemical)/4-Iodophenol (Sigma)/H2O2 mixture was used as fluorescence substrate. Plates were read on SpectraMax GEMINI′ with 555 nm Ex and 585 nm Em.
The next data set deals with IgG1 (Homo sapiens, UniProt P01857, D239E/L241M). The experiment in a line: mTgase-catalysed conjugation of IgG1 with MDC (HPLC). It is filed as biochemical. The note with it: high enzyme concentration. How it is done:
MDC was chosen for this experiment because it has a primary amine and its fluorescence can be easily monitored. […] To purified IgG1 (1-10 mg/ml) in Tris-buffer (pH 6.5-8.5), add MDC (Sigma-Aldrich) in DMSO to final concentrations of 1-5 mM (final DMSO 2-10%). Add purified wildtype TG_SL or its mutant to a final concentration of 0.05-1.0 mg/ml. Incubate the reaction mixtures at 37° C. Reaction was followed by HPLC using phenyl hydrophobic interaction column (PHIC, Tosoh Bioscience LLC). At the beginning of the reaction, the product was dominated by DAR1, where only one heavy chain of IgG1 was coupled with MDC. As the reaction progressed, DAR 2, where both heavy chains of IgG1 are coupled with MDC, became the major product. Toward the end of reaction (8 hours at 0.2 mg/ml of mTgase at pH 7), conjugation yield reached 80% for DAR2 with 20% of DAR 1 left, or 90% for heavy chain (HC) when the sample was reduced by 10 mM TCEP and analyzed on C4-1000A column (Vydac) (see FIG. 6). The selective conjugation of MDC to HC was visualized on SDS PAGE (FIG. 7). Other mTgases, such as TG_SM from S. mobaraensis (purified from Ajinomoto's Activa TI), was also tested.

Chain of IgG1 (P01857 with tags, fused parts or gaps isoform P01857-1 D239E/L241M, other chains not shown): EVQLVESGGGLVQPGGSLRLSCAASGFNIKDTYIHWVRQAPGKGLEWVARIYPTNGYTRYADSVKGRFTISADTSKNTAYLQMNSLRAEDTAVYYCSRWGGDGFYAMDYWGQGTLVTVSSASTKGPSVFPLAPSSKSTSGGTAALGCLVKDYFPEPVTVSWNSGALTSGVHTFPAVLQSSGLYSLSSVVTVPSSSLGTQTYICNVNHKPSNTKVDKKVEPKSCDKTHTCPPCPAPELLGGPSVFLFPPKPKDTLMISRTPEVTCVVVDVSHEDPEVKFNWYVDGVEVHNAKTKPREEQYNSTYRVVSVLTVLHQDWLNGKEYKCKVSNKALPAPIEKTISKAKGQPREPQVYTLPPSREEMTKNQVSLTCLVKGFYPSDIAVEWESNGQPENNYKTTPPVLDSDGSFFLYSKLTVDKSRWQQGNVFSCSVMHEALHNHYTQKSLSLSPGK

Turning to PEG4, the IC50 in the data set on SK-BR-3 cells was 0.061 nM; with BT474 cells, 0.273 nM.
For PEG6, the results for the half-maximal inhibitory concentration (IC50) in the data set with SK-BR-3 cells and in the data set on BT474 cells were 0.05 nM and 0.234 nM, respectively.
On to PEG8, for which the figures for the IC50 in the data set on SK-BR-3 cells and in the data set on BT474 cells were 0.042 nM and 0.23 nM, respectively.
On to PEG12, for which the IC50 with SK-BR-3 cells was 0.038 nM; in the data set on BT474 cells, 0.267 nM. Further, in data set [1], the “stability in blood (ratio of ADC/mAb vs time)” value was “completely stable in blood”.

B1: TG_SM: mTgase from S. mobaraensis, purified from Ajinomoto's Activa TI (SEQ ID NO:18) (protein)
chain: DSDDRVTPPAEPLDRMPDPYRPSYGRAETVVNNYIRKWQQVYSHRDGRKQQMTEEQREWLSYGCVGVTWVNSGQYPTNRLAFASFDEDRFKNELKNGRPRSGETRAEFEGRVAKESFDEEKGFQRAREVASVMNRALENAHDESAYLDNLKKELANGNDALRNEDARSPFYSALRNTPSFKERNGGNHDPSRMKAVIYSKHFWSGQDRSSSADKRKYGDPDAFRPAPGTGLVDMSRDRNIPRSPTSPGEGFVNFDYGWFGAQTEADADKTVWTHGNHYHAPNGSLGAMHVYESKFRNWSEGYSDFDRGAYVITFIPKSWNTAPDKVKQGWP
Turning to B1, the “activity comparing to TG_SL” value with IgG1 was “about 30%”.
